Measurements from patent US8273719B2, “Wrinkle-diminishing agent” (Kao Corporation, priority 2004, dated 2012).

Test system: skin which had suffered from photoaging
Assay: Wrinkle alleviating effect on photoaged (UVA/UVB irradiated) hairless mice: wrinkle score, dermis collagen content, epidermis thickness
Type: in vivo
From the text: The wrinkle alleviating effect of the antiwrinkle agent of the present invention when applied to a skin which had suffered from photoaging was examined by the following test method. A group of ten hairless mice which were ten weeks old at the start of the test was used. Photoaging was caused by irradiating the mice with UVA and UVB once a day and five times per week for continuous eight weeks. A UVA dose of 20 J/cm^2 was increased to 25 J/cm^2 and then 30 J/cm^2 every week, and a UVB dose of 20 mJ/cm^2 was increased to 30 mJ/cm^2 and then 40 mJ/cm^2 every week, and the respective maximum doses were used on and after the third week. The wrinkle alleviating effect was evaluated in respect of the wrinkle score, the dermis collagen content and the epidermis thickness. […] Specifically, the wrinkles were macroscopically evaluated with respect to the size and depth and rated in 4 stages: “large and deep wrinkles can be recognized” was rated 3, “some wrinkles can be recognized” was rated 2, “any wrinkles cannot be recognized” was rated 1, and “normal and fine skin is observed” was rated 0. Whole skin was sampled and homogenized by a POLYTRON Homogenizer (manufactured by KINEMATICA AG), and then the collagen fraction was extracted and subjected to acid hydrolysis followed by quantitative determination of a hydroxyproline content using an amino acid analyzer (manufactured by JASCO Corporation). […]

Row | SMILES | Wrinkle alleviating effect on the wrinkles caused by the photoaging (overall conclusion in words) | Epidermis thickness, effect compared to Comparative Example 1 (base only) (result in words)
1 | C=CCc1ccc(O)c(OC)c1 [eugenol] | does not have a wrinkle alleviating effect | 
2 | C=CCc1ccc(O[C@@H]2O[C@H](CO)[C@@H](O)[C@H](O)[C@H]2O)c(OC)c1 [eugenyl glycoside, eugenyl-β-D-glucoside] |  | had no such an action
